Series [1] in a line: Surface tension of a hanging droplet, Young-Laplace method (curve fitting). The format is physicochemical. The conditions noted are these: for surface tension in 0.3 mg/ml bovine lung surfactant: 1 mM of polyamine, 10 seconds after production of hanging droplet; for surface tension, polyamine alone: 0-10000 msec; for surface tension reduction effect, polyamine alone: without surfactant. The procedure: Surface tension was measured by the Young-Laplace method (curve fitting) using a contact angle meter (B100, manufactured by Asumi Giken, Limited), on a droplet formed at the tip of a 20-gauge straight needle.
Tensiometer: contact angle meter (B100, manufactured by Asumi Giken, Limited)
Surface tension measurement method: Young-Laplace method (curve fitting)
Hanging droplet production method: a maximum size of droplet not to drop was produced at the tip of a 20-gauge straight needle (an autodispenser was used)
Imaging of hanging droplet: imaging was performed using a CCD camera
Bovine lung surfactant: a commercially available bovine lung extract artificial surfactant (Surfacten (trade name), manufactured by Mitsubishi Tanabe Pharma Corporation) was adjusted to a concentration of 30 mg/ml using physiological saline according to the package insert. […] In the drawings, the formulated surfactant solution is indicated by “30 mg/ml surf.”
10-fold diluted bovine lung surfactant: a commercially available bovine lung extract artificial surfactant (Surfacten (trade name), manufactured by Mitsubishi Tanabe Pharma Corporation) was adjusted to a concentration of 3 mg/ml using physiological saline. In the drawings, the formulated surfactant solution is indicated by “3 mg/ml surf.”
100-fold diluted bovine lung surfactant: a commercially available bovine lung extract artificial surfactant (Surfacten (trade name), manufactured by Mitsubishi Tanabe Pharma Corporation) was adjusted to a concentration of 0.3 mg/ml using physiological saline. Pulmonary surfactant was diluted with physiological saline, i.e., the resultant solution mimics the state of surfactant in a lung affected by ARDS. In the drawings, the formulated surfactant solution is indicated by “100-fold diluted bovine lung surfactant,” “0.3-mg/ml bovine lung surfactant,” “0.3 mg/ml surf,” or “ 1/100 Surf.”
1000-fold diluted bovine lung surfactant: a commercially available bovine lung extract artificial surfactant (Surfacten (trade name), manufactured by Mitsubishi Tanabe Pharma Corporation) was adjusted to a concentration of 0.03 mg/ml using physiological saline. In the drawings, the formulated surfactant solution is indicated by “0.03 mg/ml surf.”
Polyamine-containing 100-fold diluted bovine lung surfactant:
The solution was formulated using a commercially available polyamine chloride. […]

In series [2] the test system is ARDS model. Kind of series: Dynamic lung compliance after pulmonary alveolar washing, ventilated ARDS model rat. The format is in vivo. The following applies: for lung compliance after pulmonary alveolar washing: 20 ml/kg, 5 times within 2 minutes; for time it took to recover to 0.9 (lung compliance before washing set as 1.0): average. The procedure: When the respiratory and circulatory dynamics of the rat were stable under artificial ventilation, an injection/suction operation using 20 ml/kg of a pulmonary alveolar washing solution (physiological saline) through the tracheal cannula was conducted […] consecutively within 2 minutes. […] Thus, an ARDS model whose pulmonary alveoli were washed with physiological saline was produced. The pulmonary alveolar washing operation means production of a respiratory distress syndrome (ARDS) model having decreased lung compliance.
The above ventilation was conducted by inverse ratio ventilation without using PEEP. The ventilation was conducted using ambient air (inhaled oxygen concentration FiO2: 0.21) without oxygen administration. The intra-airway pressure and the partial pressure of oxygen in the arterial blood (PaO2) were measured over time. Influence of the polyamines was analyzed, where dynamic lung compliance (=a tidal volume/a change in intra-airway pressure) (expression 1) was used as a measure of the distensibility of the lung, and PaO2/FiO2 (P/F ratio)<300 was used as a criterion for gas exchange dysfunction.
When the respiratory and circulatory dynamics of the rat were stable under artificial ventilation, 20 ml/kg of a pulmonary alveolar washing solution (physiological saline) was injected/suctioned consecutively 5 times within 2 minutes through the tracheal cannula. […] Thus, an ARDS model whose pulmonary alveoli were washed with physiological saline was produced.
When the respiratory and circulatory dynamics of the rat were stable under artificial ventilation, 20 ml/kg of a pulmonary alveolar washing solution (physiological saline containing 0.5 mM of Spm) was injected/suctioned consecutively 5 times within 2 minutes through the tracheal cannula. […] Thus, an ARDS model whose pulmonary alveoli were washed with 0.5 mM of Spm was produced.
(§1) The above ventilation was conducted by inverse ratio ventilation without using PEEP. The ventilation was conducted using ambient air (inhaled oxygen concentration FiO2: 0.21) without oxygen administration. The intra-airway pressure and the partial pressure of oxygen in the arterial blood (PaO2) were measured over time. Influence of the polyamine was analyzed, where dynamic lung compliance was used as a measure of the distensibility of the lung, and the P/F ratio<300 was used as a criterion for gas exchange dysfunction.
When the respiratory and circulatory dynamics of the rat were stable under artificial ventilation, 20 ml/kg of a pulmonary alveolar washing solution (physiological saline containing 1 mM of Spm) was injected/suctioned consecutively 5 times within 2 minutes through the tracheal cannula. […] Thus, an ARDS model whose pulmonary alveoli were washed with 1 mM of Spm was produced.
When the respiratory and circulatory dynamics of the rat were stable under artificial ventilation, 20 ml/kg of a pulmonary alveolar washing solution (0.3 mg/ml of a bovine lung extract artificial surfactant; the bovine lung extract artificial surfactant was formulated by dissolving Surfacten (trade name), manufactured by Mitsubishi Tanabe Pharma Corporation, in physiological saline to a concentration of 0.3 mg/ml, which is 1/100 of the concentration that is normally for administration to a preterm infant) was injected/suctioned consecutively 5 times within 2 minutes through the tracheal cannula. […] Note that it was confirmed that no polyamines are detected in the bovine lung extract artificial surfactant. […]

For series [3], the system named is lung affected by ARDS. The conditions noted are these: transairway administration of 5 mM of Spm, 20 ml/kg, 5 times, after first washing with physiological saline.
Experimental: Specifically, influence of transairway administration of 5 mM of Spm to an ARDS model animal on lung compliance was analyzed.
A tracheal cannula was inserted into a rat under general anesthesia, and then euthanized. Immediately after that, artificial ventilation was conducted for 30 seconds, and lung compliance before washing that is calculated based on intra-airway pressure was set as 1.0 (“before washing” on the left slide of FIG. 10). Following this, a lung affected by ARDS was produced. Specifically, an injection/suction operation was conducted 5 times consecutively within 2 minutes using 20 ml/kg of physiological saline through the tracheal cannula. After the washing solution remaining in the tracheal cannula was suctioned out, artificial ventilation was conducted for 30 seconds, and the lung compliance of the lung affected by ARDS was calculated and compared with that of the normal lung (“first pulmonary alveolar washing” at the center of FIG. 10). […] After the washing solution remaining in the tracheal cannula was suctioned out, artificial ventilation was conducted for 30 seconds, and the lung compliance calculated based on intra-airway pressure (“second pulmonary alveolar washing” (open column) on the right side of FIG. 10) was compared with that of the lung affected by ARDS. […]
In series [4] the test system is lung field. The following applies: rat d: washed with physiological saline, then physiological saline containing 5 mM of Spm; applied pressure 20 cm H2O.
Experimental: Plain X-ray imaging and X-ray CT imaging were performed, with an air pressure (0 and 20 cm H2O) exerted through a tracheal cannula, on rats that were euthanized after pulmonary alveolar washing or rats that were subjected to pulmonary alveolar washing immediately after euthanization.
A rat a was a control that was not subjected to pulmonary alveolar washing. Specifically, a tracheal cannula was inserted into a rat under general anesthesia, and the rat was euthanized without pulmonary alveolar washing.
A rat b was subjected to pulmonary alveolar washing with physiological saline containing 1 mM of Spm. Specifically, a tracheal cannula was inserted into a rat under general anesthesia, and after the rat was euthanized, 20 ml/kg of a pulmonary alveolar washing solution (physiological saline containing 1 mM of Spm) was injected/suctioned consecutively 5 times within 2 minutes through the tracheal cannula, and the washing solution remaining in the trachea was suctioned out.
A rat c was subjected to pulmonary alveolar washing with physiological saline. Specifically, a tracheal cannula was inserted into a rat under general anesthesia. […]
For series [5], the system named is ARDS model. Kind of series: Gas exchange dysfunction occurrence rate (P/F ratio<300) after pulmonary alveolar washing. The format is in vivo, rat. The procedure: as §1, with “Ventilation” for “The above ventilation”, “dysfunction. […] Influence of Spm administered to pulmonary alveoli on the rate of occurrence of gas exchange dysfunction was analyzed, where the P/F ratio<300 was used as a criterion for gas exchange dysfunction. […] Cases (death) that death occurred before the measurement times, i.e., arterial blood sampling was not conducted, were counted as the case of occurrence of gas exchange dysfunction.” for “dysfunction.”

Molecules are shown by their SMILES.

The results in this text go back to patent publication US20260272854A1, “PHARMACEUTICAL AGENT, MEDICINAL SOLUTION FOR CLEANING PULMONARY ALVEOLI, AND NEBULIZER” (priority 2019, published 2026).

Take `CC(=O)NCCCNCCCCN` [N1-AcSpd, N1-acetylspermidine]: in series [1], the “surface tension in 0.3 mg/ml bovine lung surfactant” value was “reduction in surface tension” and the “surface tension reduction effect, polyamine alone” value was “does not have the surface tension reduction effect”. The “surface tension, polyamine alone” value in series [1] (1 mM without surfactant) turned out to be 63 mN/m.

Regarding `NCCCCN` [Put, putrescine], the “surface tension reduction effect in diluted surfactant environment” value in series [1] (Put-containing 0.3 mg/ml bovine lung surfactant, 60 seconds after formation of hanging droplet) is listed as “observed on several tens of seconds after formation of a hanging droplet”. Besides, the “surface tension reduction effect, polyamine alone” value in series [1] is listed as “does not have the surface tension reduction effect”.

With `NCCCCNCCCN` [Spd, spermidine], in series [1] (Spd-containing 0.3 mg/ml bovine lung surfactant), the “surface tension reduction effect in diluted surfactant environment” value is reported as “has the surface tension reduction effect”. In addition, the “surface tension reduction effect, polyamine alone” value in series [1] is recorded as “does not have the surface tension reduction effect”.

In the case of `NCCCNCCCCNCCCN` [Spm, spermine], the “lung compliance after pulmonary alveolar washing” value in series [2] (physiological saline containing 0.5 mM of Spm) and in series [2] (physiological saline containing 1 mM of Spm) was “lung compliance subsequently recovered” in each case. Also, the “effect of improving lung compliance, 1 mM versus 0.5 mM of Spm” value in series [2] (until 60 minutes after washing) is on record as “higher for 1 mM of Spm”. In addition, the “time it took to recover to 0.9 (lung compliance before washing set as 1.0)” value in series [2] (washing with 0.5 mM of Spm) amounted to 60 min; in series [2] (washing with 1 mM of Spm) it was 15 min. Also, the “lung compliance after second pulmonary alveolar washing” value in series [3] is recorded as “improved the lung compliance”. The “CT images of lung field” value in series [4] is on record as “no wide range of infiltrative shadow was observed”. Besides, the “X-ray images of lung field” value in series [4] is “the cardiac shadow became clear”. Also, in series [1] (0.5 mM of Spm without surfactant), the “surface tension, polyamine alone” value was found to be 64 mN/m. The “surface tension of 0.3 mg/ml surf” value in series [1] (presence of 0.5, 1 and 2 mM of Spm) is given as “reduced surface tension”. Moreover, the “surface tension reduction effect, polyamine alone” value in series [1] is recorded as “does not have such a surface tension reduction effect”. Moreover, the “gas exchange dysfunction occurrence rate” value is listed as “lower than the others” in series [5] (20 minutes after washing, 1 mM of Spm); “significantly decreased” in series [5] (1 hour after washing, Spm-containing physiological saline (0.5 and 1 mM) compared to physiological saline).

Turning to `NCCCCCCN` [diaminohexane], in series [1], the “surface tension in 0.3 mg/ml bovine lung surfactant” value is listed as “reduction in surface tension” and the “surface tension reduction effect, polyamine alone” value was “does not have the surface tension reduction effect”. Also, in series [1] (1 mM without surfactant), the “surface tension, polyamine alone” value is 62 mN/m.
